Assay results from US11623909B2, “Water-based extraction and purification processes for cannabinoid acids” (MEDPHARM IOWA LLC, priority 2019, dated 2023).

Tests used:
[1] = HPLC of acidified solution after precipitation of cannabinoid acid (amount remaining in solution); type: physicochemical
Excerpt: Precipitation of crude extract (CBDA) by acidification was done with either hydrochloric acid or nitric acid. No difference was observed between the two since the precipitation was pH driven. 1.0-1.5 equivalents of acid (relative to total base) was sufficient for precipitation of the crude extract. The crude extract had CBDA purities on the order of 40-50% and were independent of the amount of acid added. E.g. adding fewer than 1.0 equivalents in an attempt to selectively precipitate either impurities or CBDA yielded crude material with similar purities. Addition of more acid yielded more precipitate of similar purity (up to 1.0-1.5 equivalents). Addition of more than 1.5 equivalents yielded no additional precipitate. Though when the mixture was allowed to sit overnight more white precipitate formed. […]
‘Spent’ CO2-stripped biomass was aliquoted out to 50 g portions (˜6 g THCA). […] All filtrate was analyzed by HPLC prior to acidification. […] Both the filtrate and dried material were analyzed by HPLC. […]
Experiment A utilized a NaOH:THCA (mol:mol) ratio of 1:1 (see Table 4). […] The amount of THCA detected in the filtrate increased with each successive wash until a rinse with no added NaOH was conducted for 1 minute. […] The precipitate was filtered off, collected, and analyzed by HPLC. The filtrate was acidified to pH 2.16 to yield a tan/brown precipitate, filter, collected and analyzed by HPLC. […]

[2] = Solubility limit of THCA anions in aqueous NaOH wash (experiment A, 1:1 NaOH:THCA); type: physicochemical; conditions: NaOH:THCA 1:1 mol:mol, room temperature, conditions of experiment A
Procedure: ‘Spent’ CO2-stripped biomass was aliquoted out to 50 g portions (˜6 g THCA). Water (400 ml) and a 40 wt % solution of NaOH (see Tables 4-6) was added to the plant material. The mixture was allowed to stir for 10 minutes at 500-1000 RPM (speed was adjusted to minimize foaming). Solid materials were filtered off with coffee filters. The process was repeated for a total of 4 (Expt A) to 5 (Expts B&C) iterations. A final rinse 2×200 ml with no NaOH was stirred for 1 minute then filtered off. All filtrate was analyzed by HPLC prior to acidification. Acidification to pH 2-3 with HCl, as described above, yielded a precipitate which was filtered off and dried. Both the filtrate and dried material were analyzed by HPLC. All extractions were done at room temperature.
Experiment A utilized a NaOH:THCA (mol:mol) ratio of 1:1 (see Table 4). […] The amount of THCA detected in the filtrate increased with each successive wash until a rinse with no added NaOH was conducted for 1 minute. […] The precipitate was filtered off, collected, and analyzed by HPLC. The filtrate was acidified to pH 2.16 to yield a tan/brown precipitate, filter, collected and analyzed by HPLC. […] The final filtrate (left over after harvesting THCA) contained THCA quantities that were below the limit of quantification (less than 10 mg/400 g wash/rinse; that is <0.001 wt % THCA).

Row | SMILES | CBDA remaining in acidified solution (loss) ([1]; acidified solution pH~4, after precipitation of crude extract) [μg CBDA/ml] | solubility limit for THCA anions [2] | THCA in final filtrate after acidification (below limit of quantification) ([1]; filtrate after acidification to pH 2-3 with HCl and harvesting THCA, experiment A) [wt % THCA]
1 | C=C(C)[C@@H]1CCC(C)=C[C@H]1c1c(O)cc(CCCCC)c(C(=O)O)c1O [CBDA] | ~7 |  | 
2 | CCCCCc1cc2c(c(O)c1C(=O)O)[C@@H]1C=C(C)CC[C@H]1C(C)(C)O2 [THCA] |  | around 0.3 wt % | < 0.001
